The values below come from publication PMC7158045 (BMC Plant Biology, 2020).

Holding throughout (assay): biochemical
The target in one assay is T1, ZmDRIK1-R187-P492 (Zea mays, UniProt C0P4K9).
T1 construct: kinase domain, R187-P492
T1 sequence (C0P4K9 1-514): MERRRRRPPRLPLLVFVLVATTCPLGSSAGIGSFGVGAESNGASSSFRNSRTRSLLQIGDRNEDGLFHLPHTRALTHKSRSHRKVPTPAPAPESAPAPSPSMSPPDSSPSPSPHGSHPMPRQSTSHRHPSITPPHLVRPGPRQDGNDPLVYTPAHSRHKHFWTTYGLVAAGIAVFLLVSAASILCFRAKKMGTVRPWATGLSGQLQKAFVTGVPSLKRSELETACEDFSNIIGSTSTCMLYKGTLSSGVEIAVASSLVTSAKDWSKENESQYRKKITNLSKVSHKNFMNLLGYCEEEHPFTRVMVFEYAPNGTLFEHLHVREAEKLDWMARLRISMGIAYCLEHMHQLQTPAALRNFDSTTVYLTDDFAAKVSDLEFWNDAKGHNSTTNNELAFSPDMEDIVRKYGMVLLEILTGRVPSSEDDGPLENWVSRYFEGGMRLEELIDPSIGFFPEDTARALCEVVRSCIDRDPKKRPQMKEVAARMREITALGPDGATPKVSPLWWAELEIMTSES
Conditions: read-out: dTm B, DSF, Boltzmann fit, 0.1% DMSO.

Assay [1] concerns the target T2, ZmDRIK1 (DROUGHT RESPONSIVE INACTIVE KINASE 1), kinase domain (Zea mays, UniProt C0P4K9).
T2 construct: gene ZEAMMB73_Zm00001d028770; ZmDRIK1-KD R187-S514 (kinase domain)
T2 sequence (C0P4K9 187-514): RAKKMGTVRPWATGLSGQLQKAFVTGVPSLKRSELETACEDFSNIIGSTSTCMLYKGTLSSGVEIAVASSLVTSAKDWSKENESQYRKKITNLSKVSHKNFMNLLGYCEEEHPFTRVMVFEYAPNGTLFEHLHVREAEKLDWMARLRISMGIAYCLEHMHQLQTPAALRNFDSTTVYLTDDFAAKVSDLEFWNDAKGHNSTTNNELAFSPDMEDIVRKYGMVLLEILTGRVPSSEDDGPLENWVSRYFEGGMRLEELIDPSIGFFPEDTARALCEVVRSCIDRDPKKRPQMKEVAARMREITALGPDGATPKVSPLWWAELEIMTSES
As to conditions: read-out: dTm B, sheet ZmDRIK1-R187-S514;; DSF, Boltzmann fit, 0.1% DMSO.

The next assay addresses T3, ZmDRIK1-K217-S514 (Zea mays, UniProt C0P4K9).
T3 construct: kinase domain, K217-S514
T3 sequence (C0P4K9 1-514): T1 sequence (C0P4K9 1-514)
As to conditions: read-out: dTm B, sheet ZmDRIK1-K217-S514;; DSF, Boltzmann fit, 0.1% DMSO.

Another assay deals with T4, ZmDRIK1-K217-P492 (Zea mays, UniProt C0P4K9).
T4 construct: kinase domain, K217-P492
T4 sequence (C0P4K9 1-514): T1 sequence (C0P4K9 1-514)
Conditions: read-out: dTm B, sheet ZmDRIK1-K217-P492;; DSF, Boltzmann fit, 0.1% DMSO.

Where a name gives a salt, the structure may show the parent alone.

Turning to `CC(C)(C)c1cc(NC(=O)Nc2ccc(-c3cn4c(n3)sc3cc(OCCN5CCOCC5)ccc34)cc2)no1` [Quizartinib (AC220)], the ΔTm at 10 µM at ZmDRIK1-R187-P492 was -3.69 °C; in assay [1] it was -11.5 °C; at ZmDRIK1-K217-S514, -1.21 °C; at ZmDRIK1-K217-P492, -4.77 °C.
In the same order, the values of `Cc1csc(-c2nnc(Nc3ccc(Oc4ncccc4-c4ccnc(N)n4)cc3)c3ccccc23)c1` [AMG-900] are -0.572 °C, -6.12 °C, -2.33 °C and -3.86 °C.
On the same counts, the results for `N#CC1(c2ccc(NC(=O)c3cccnc3NCc3ccncc3)cc2)CCCC1` [Apatinib] are -0.28 °C, -0.808 °C, -0.311 °C and -0.944 °C.
For the compound `O=c1c(O)c(-c2ccc(O)c(O)c2)oc2cc(O)cc(O)c12` [Quercetin], the ΔTm at 10 µM at ZmDRIK1-R187-P492 was -0.357 °C; in assay [1], -0.63 °C; on ZmDRIK1-K217-S514, -0.0338 °C; on ZmDRIK1-K217-P492 it was -1.11 °C.
On the same counts, the results for `CCN1CCN(Cc2ccc(Nc3ncc(F)c(-c4cc(F)c5nc(C)n(C(C)C)c5c4)n3)nc2)CC1` [LY2835219] are -0.433 °C, -0.878 °C, -0.201 °C and -0.986 °C.
On to `COC[C@H]1OC(=O)c2coc3c2[C@@]1(C)C1=C(C3=O)[C@@H]2CCC(=O)[C@@]2(C)C[C@H]1OC(C)=O` [Wortmannin], for which the ΔTm at 10 µM on ZmDRIK1-R187-P492 is -0.289 °C; in assay [1], -0.735 °C; on ZmDRIK1-K217-S514, -0.299 °C; on ZmDRIK1-K217-P492 it was -1.08 °C.
With `O=C(NCc1cccc(O)c1)Nc1nc(-c2ccncc2)cs1` [RKI-1447], the ΔTm at 10 µM at ZmDRIK1-R187-P492 was 0.716 °C; in assay [1] it was -0.456 °C; at ZmDRIK1-K217-S514, -0.42 °C; at ZmDRIK1-K217-P492, -0.48 °C.
As to `CN1CCN(CCOc2cc(OC3CCOCC3)c3c(Nc4c(Cl)ccc5c4OCO5)ncnc3c2)CC1` [Saracatinib (AZD0530)], the ΔTm at 10 µM on ZmDRIK1-R187-P492 was -0.196 °C; in assay [1], -0.646 °C; at ZmDRIK1-K217-S514 it was -0.253 °C; on ZmDRIK1-K217-P492, -1.11 °C.
On the same counts, the results for `Oc1cccc(-c2nc(N3CCOCC3)c3oc4ncccc4c3n2)c1` [PI-103] are -0.366 °C, -0.608 °C, -0.559 °C and -1.14 °C.
Regarding `CN1CCCN(C(=O)c2cccc(-c3ccc(/C=C4/C(=O)Nc5ccc(Cl)cc54)o3)c2)CC1` [CX-6258 HCl], the ΔTm at 10 µM was -0.49 °C on ZmDRIK1-R187-P492, -1.14 °C in assay [1], -0.341 °C at ZmDRIK1-K217-S514 and -1.21 °C at ZmDRIK1-K217-P492.
With `CN([C@@H](Cc1ccc(OS(=O)(=O)c2cccc3cnccc23)cc1)C(=O)N1CCN(c2ccccc2)CC1)S(=O)(=O)c1cccc2cnccc12` [KN-62], the ΔTm at 10 µM was -1.15 °C at ZmDRIK1-R187-P492, -1.39 °C in assay [1], -0.945 °C on ZmDRIK1-K217-S514 and -1.79 °C on ZmDRIK1-K217-P492.
In the same order, the values of `CC1=C(C(=O)Nc2cc3cn[nH]c3cc2F)C(c2ccc(C(F)(F)F)cc2)CC(=O)N1` (stereo not drawn) [GSK429286A] are -0.447 °C, -0.758 °C, -0.373 °C and -1.02 °C.
Regarding `COc1ccc(CNC(=O)Nc2ncc([N+](=O)[O-])s2)cc1` [AR-A014418], the ΔTm at 10 µM was -0.199 °C at ZmDRIK1-R187-P492, -1.03 °C in assay [1], -0.49 °C at ZmDRIK1-K217-S514 and -0.984 °C at ZmDRIK1-K217-P492.
In the same order, the values of `COc1ccc(-c2cc3c(C)nc(N)nc3n([C@H]3CC[C@H](OCCO)CC3)c2=O)cn1` [PF-04691502] are -0.18 °C, -0.814 °C, -0.31 °C and -0.953 °C.
On the same counts, the results for `CC(C)CCN1c2nc(Nc3cc(F)c(O)c(F)c3)ncc2N(C)C(=O)C1C` (stereo not drawn) [BI-D1870] are -0.479 °C, -0.701 °C, -0.612 °C and -1.48 °C.
